Assay results taken from patent US9695155B2, “Herbicidal substituted pyrimidinyloxy benzene compounds” (E. I. DU PONT DE NEMOURS AND COMPANY, priority 2013, dated 2017).

Assays:
[1] = test system: johnsongrass; test: Test C preemergence; assay type: in vivo, Sorghum halepense; settings: preemergence
Procedure, shortened: (§1)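 Sown in loam/sand → sprayed pre-emergence; or grown to 1–4 leaves in peat mix → sprayed post-emergence. Same solvent/surfactant formulation both ways. Greenhouse 13–15 d. Score 0–100 visual.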

[2] = test system: corn; test: Test A postemergence; assay type: in vivo, Zea mays; settings: 0 to 100 scale where 0 is no effect and 100 is complete control
Procedure, shortened: (§2)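 Compounds in non-phytotoxic solvent with surfactant applied as soil spray preemergence, or postemergence to plants 2-10 cm at one- to two-leaf stage, in loam/sand. After approximately 10 days in greenhouse, injury rated visually versus untreated controls, 0 (no effect) to 100 (complete control).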

[3] = test system: pigweed; test: Test A preemergence; assay type: in vivo, Amaranthus retroflexus; settings: 0 to 100 scale where 0 is no effect and 100 is complete control
Procedure, shortened: as §2

[4] = test system: kochia; test: Test C postemergence; assay type: in vivo, Kochia scoparia; settings: for Plant response rating, Kochia: scale 0 to 100 (0 no effect, 100 complete control)
Procedure, shortened: as §1

[5] = test system: galium; test: Test C postemergence; assay type: in vivo, Galium aparine; settings: for Plant response rating, Galium: scale 0 to 100 (0 no effect, 100 complete control)
Procedure, shortened: as §1

[6] = test system: large (Lg) crabgrass; test: Test C preemergence; assay type: in vivo, Digitaria sanguinalis; settings: for Crabgrass, Large plant response rating: preemergence
Procedure, shortened: as §1

[7] = test system: lambsquarters; test: Test C preemergence; assay type: in vivo, Chenopodium album; settings: preemergence, scale 0 (no effect) to 100 (complete control)
Procedure, shortened: as §1

[8] = test system: giant foxtail; test: Test C postemergence; assay type: in vivo, Setaria faberii; settings: for Plant response rating, Foxtail, Giant: scale 0 to 100 (0 no effect, 100 complete control)
Procedure, shortened: as §1

[9] = test system: pigweed; test: Test A postemergence; assay type: in vivo, Amaranthus retroflexus; settings: 0 to 100 scale where 0 is no effect and 100 is complete control
Procedure, shortened: as §2

[10] = test system: chickweed; test: Test C postemergence; assay type: in vivo, Stellaria media; settings: for Plant response rating, Chickweed: scale 0 to 100 (0 no effect, 100 complete control)
Procedure, shortened: as §1

[11] = test system: giant foxtail; test: Test A postemergence; assay type: in vivo, Setaria faberii; settings: 0 to 100 scale where 0 is no effect and 100 is complete control
Procedure, shortened: as §2

[12] = test system: corn; test: Test C postemergence; assay type: in vivo, Zea mays; settings: for Plant response rating, Corn: scale 0 to 100 (0 no effect, 100 complete control)
Procedure, shortened: as §1

[13] = test system: barnyardgrass; test: Test A preemergence; assay type: in vivo, Echinochloa crus-galli; settings: 0 to 100 scale where 0 is no effect and 100 is complete control
Procedure, shortened: as §2

[14] = test system: johnsongrass; test: Test C postemergence; assay type: in vivo, Sorghum halepense
Procedure, shortened: as §1

[15] = test system: ragweed; test: Test C preemergence; assay type: in vivo, Ambrosia elatior; settings: preemergence
Procedure, shortened: as §1

[16] = 16 g ai/ha, scale 0 to 100 (0 no effect, 100 complete control)
[17] = 62 g ai/ha, scale 0 (no effect) to 100 (complete control)
[18] = 125 g ai/ha, scale 0 (no effect) to 100 (complete control)
[19] = 16 g ai/ha, postemergence, 0 is no effect, 100 is complete control
[20] = 125 g ai/ha, postemergence, visual rating

## Cc1cnc(Oc2cccc(C#N)c2-n2cc(I)cn2)nc1 [Compound 136]
[1]; [16]
  Johnsongrass plant response rating: 0
[1]; [17]
  Johnsongrass plant response rating: 20
[1]; [18]
  Johnsongrass plant response rating: 60
[2]; 125 g ai/ha
  Corn plant response rating: 10
[2]; 500 g ai/ha
  Plant response rating, Corn: 60
[3]; 125 g ai/ha
  Plant response rating, Pigweed: 90
[3]; 500 g ai/ha
  Pigweed plant response rating: 100
[4]; [19]
  Plant response rating (0 to 100), Kochia: 5
[4]; [20]
  Plant response rating, Kochia: 70
[4]; Postemergence, 62 g ai/ha
  Plant response rating, Kochia: 60
[5]; [19]
  Plant response rating (0 to 100), Galium: 20
[5]; [20]
  Plant response rating, Galium: 60
[5]; Postemergence, 62 g ai/ha
  Plant response rating, Galium: 55
[6]; [16]
  Crabgrass, Large plant response rating: 35
[6]; [17]
  Crabgrass, Large plant response rating: 100
[6]; [18]
  Crabgrass, Large plant response rating: 100
[6]; Preemergence, 31 g ai/ha, scale 0 to 100, 0 no effect, 100 complete control
  Plant response rating, Crabgrass, Large: 100
[7]; 62 g ai/ha
  Lambsquarters plant response rating: 80
[7]; 125 g ai/ha
  Lambsquarters plant response rating: 100
[8]; [19]
  Plant response rating (0 to 100), Foxtail, Giant: 5
[8]; [20]
  Plant response rating, Foxtail, Giant: 10
[8]; Postemergence, 62 g ai/ha
  Plant response rating, Foxtail, Giant: 5
[9]; 125 g ai/ha
  Pigweed plant response rating: 80
[9]; 500 g ai/ha
  Plant response rating, Pigweed: 100
[10]; [19]
  Plant response rating (0 to 100), Chickweed: 5
[10]; [20]
  Plant response rating, Chickweed: 60
[10]; Postemergence, 62 g ai/ha
  Plant response rating, Chickweed: 5
[11]; 125 g ai/ha
  Foxtail, Giant plant response rating: 30
[11]; 500 g ai/ha
  Plant response rating, Foxtail, Giant: 90
[12]; [19]
  Plant response rating (0 to 100), Corn: 0
[12]; [20]
  Plant response rating, Corn: 5
[12]; Postemergence, 62 g ai/ha
  Plant response rating, Corn: 0
[13]; 125 g ai/ha
  Plant response rating, Barnyardgrass: 60
[13]; 500 g ai/ha
  Barnyardgrass plant response rating: 100
[14]; [19]
  Plant response rating (0 to 100), Johnsongrass: 0
[14]; Postemergence, 62 g ai/ha, scale 0 to 100 (0 no effect, 100 complete control)
  Plant response rating, Johnsongrass: 0
[15]; [16]
  Ragweed plant response rating: 0
[15]; [17]
  Ragweed plant response rating: 20
[15]; [18]
  Ragweed plant response rating: 70
